Test results published in ChEMBL document CHEMBL1140985, “Expanding the repertoire of small molecule transcriptional activation domains” (Bioorg Med Chem, 2009).

Key:
[1] = molecular target: T1, Glucocorticoid receptor (Homo sapiens) (UniProt P04150); assay: Transcriptional activation of Gal4(1-147) tagged glucocorticoid receptor in human HeLa cells at 1 uM by luciferase reporter gene assay relative to OxDex-AEEA; assay type: cell-based
T1 sequence (whole entry): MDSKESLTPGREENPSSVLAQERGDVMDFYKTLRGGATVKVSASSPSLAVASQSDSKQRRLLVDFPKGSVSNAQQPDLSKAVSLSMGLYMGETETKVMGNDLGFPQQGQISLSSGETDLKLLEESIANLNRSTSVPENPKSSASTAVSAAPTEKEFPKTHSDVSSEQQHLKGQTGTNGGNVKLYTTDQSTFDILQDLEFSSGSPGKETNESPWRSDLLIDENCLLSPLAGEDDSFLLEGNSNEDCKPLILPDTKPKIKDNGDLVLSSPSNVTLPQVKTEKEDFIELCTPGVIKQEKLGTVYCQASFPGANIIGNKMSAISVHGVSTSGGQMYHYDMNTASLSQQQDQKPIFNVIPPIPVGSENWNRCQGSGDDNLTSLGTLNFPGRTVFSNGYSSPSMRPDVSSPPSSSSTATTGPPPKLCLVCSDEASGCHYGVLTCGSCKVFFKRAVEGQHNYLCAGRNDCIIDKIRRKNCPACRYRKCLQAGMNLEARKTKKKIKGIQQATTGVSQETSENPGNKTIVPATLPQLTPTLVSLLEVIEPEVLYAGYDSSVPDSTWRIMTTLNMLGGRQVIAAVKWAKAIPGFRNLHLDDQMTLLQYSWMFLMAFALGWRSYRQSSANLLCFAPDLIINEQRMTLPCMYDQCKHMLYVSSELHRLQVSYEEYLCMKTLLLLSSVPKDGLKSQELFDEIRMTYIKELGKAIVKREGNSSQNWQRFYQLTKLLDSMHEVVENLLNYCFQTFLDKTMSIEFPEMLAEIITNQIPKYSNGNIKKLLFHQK

[2] = molecular target: T2, Glucocorticoid receptor (Homo sapiens, UniProt P04150); assay: Transcriptional activation of Gal4(1-147) tagged glucocorticoid receptor in human HeLa cells by luciferase reporter gene assay relative to OxDex-AEEA; assay type: cell-based
T2 sequence (P04150 whole entry): T1 sequence (whole entry)

| Compound | fold change (FC) [1] | EC50 [2] [nM] |
| --- | --- | --- |
| CC(C)C[C@]1(CCO)C[C@H](CNC(=O)COCCOCCNC(=O)[C@@]2(O)[C@H](C)C[C@H]3[C@@H]4CCC5=CC(=O)C=C[C@]5(C)[C@@]4(F)[C@@H](O)C[C@@]32C)ON1Cc1ccccc1 | 80 | 33 |
| CC(C)C[C@@H](NC(=O)COCCOCCNC(=O)[C@@]1(O)[C@H](C)C[C@H]2[C@@H]3CCC4=CC(=O)C=C[C@]4(C)[C@@]3(F)[C@@H](O)C[C@@]21C)C(=O)N[C@H](CO)C(=O)N[C@H](Cc1ccccc1)C(N)=O | – | 1860 |
| CC(C)C[C@](CCO)(C[C@H](O)CNC(=O)COCCOCCNC(=O)[C@@]1(O)[C@H](C)C[C@H]2[C@@H]3CCC4=CC(=O)C=C[C@]4(C)[C@@]3(F)[C@@H](O)C[C@@]21C)NCc1ccccc1 | – | 2500 |
